The test system of the experiment is 317291-083-R-J1-PDC complex spheroids, viability. The experiment in a line: Anticancer human tumor 317291-083-R-J1-PDC patient-derived soft tissue sarcoma cell line growth inhibition [GQUAD]. As to conditions: for viability, T/C: stronger effect = lower value. From the text:
DNA G-quadruplex Stabilizer Agents in Combinations in Complex Spheroids
A high-throughput screen of multi-cell type tumor spheroids was designed to identify active combinations of DNA G-quadruplex stabilizer agents and targeted small molecules. Complex spheroids include a stromal component modeled by human endothelial cells (HUVEC) and fibroblasts modeled by human mesenchymal stem cells (MSCs). The concentration ranges selected for each drug and investigational agent were based upon clinically achievable concentrations if the clinical Cmax of the agent was known.
Compounds. The drugs and investigational agents: pidnarulex (CX-5461; NSC782164), APTO-253 (NSC789042), BRACO-19 (NSC847499), peposertib (NSC802822), ceralasertib (NSC780249), elimusertib (NSC800525), camonsertib (NSC841442), AZD-1390 (NSC803789), olaparib (NSC753686), talazoparib (NSC767125), ART-558 (NSC835418), sotorasib (NSC818433), MRTX-1133 (NSC836407), SN-38 (NSC673596), topotecan (NSC609699), etoposide (NSC141540), doxorubicin (NSC123127), gemcitabine (NSC613327), 5-fluorouracil (NSC19893), paclitaxel (NSC125973), vemurafenib (NSC761431), panobinostat (NSC761190), R-306465 (JNJ-16241199; NSC773264), adavosertib (NSC754352), TP-3654 (NSC805149), carboplatin (NSC241240), KSQ-4279 (NSC840948), and staurosporine (NSC755774) were obtained from the National Cancer Institute (NCI) Developmental Therapeutics Program Chemical Repository (34). The FDA-approved anticancer drug set is available from the NCI Developmental Therapeutics Program. […] The stock solutions were prepared in dimethyl sulfoxide (DMSO, Sigma-Aldrich, St. Louis, MO, cat. D2650) at 800-fold the tested concentration and stored at -70 degrees C prior to their use. All drugs and investigational agents were tested over a range starting from a high concentration at or near the clinical Cmax and decreasing in half-log increments. If the clinical Cmax for an agent had not been determined, the highest concentration tested was 10 microM.
2.3 Cell Culture. All cells were maintained in an incubator at 37 degrees C and 5% CO2 with 95% humidity. The PDC lines were cultured according to standard operating procedures established by the NCI PDMR. All PDCs were thawed and cultured in Matrigel-coated flasks prepared with a working solution of 1X Ham's F-12 nutrient mix, without supplementation (Invitrogen, cat. 11765054), 100 U/mL penicillin-streptomycin (Invitrogen, cat. 15140122), and 2.5% Matrigel (Corning Inc., cat. 354248) for the first three passages. The 857933-349-R-J2-PDC line was cultured in 6C/Colon 1B media, which includes advanced DMEM/F-12 (Thermo Fisher Scientific, cat. 12634028), 10 mM HEPES (Thermo Fisher Scientific, cat. 15630080), 1X GlutaMAX supplement (Thermo Fisher Scientific, cat. 35050061), 0.1 mg/mL primocin (InvivoGen, cat. ant-pm-2), 10% defined fetal bovine serum, heat inactivated (HyClone Laboratories Inc., cat. SH30070.03HI), 50% L-WRN conditioned media (ATCC, cat. CRL-3276), 1.25 mM N-Acetyl-L-cysteine (Sigma-Aldrich, cat. A9165), 10 mM nicotinamide (Sigma-Aldrich, cat. N0636), 1X B-27 supplement (Thermo Fisher Scientific, cat. 17504044), 1X N-2 supplement (Thermo Fisher Scientific, cat. 17502048), 10 microM Y-27632 dihydrochloride (Tocris Bioscience, cat. 1254), and 50 ng/mL human EGF recombinant protein (Thermo Fisher Scientific, cat. PHG0311). The 485176-168-R4-J1-PDC line was cultured in Panc media, which includes all 6C/Colon 1B media components plus 100 ng/mL human FGF-10 (Thermo Fisher Scientific, cat. 100-26), 500 nM SB-431542 (Selleckchem, cat. S1067), and gastrin (Tocris, cat. 3006).
[…]

Values joined by “and” are separate entries in the source; they are usually repeats but may differ in a detail not shown here. Equal values may be shown once.
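Note: spheroids exposed to compounds for one week before readout.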
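Throughout, for viability, T/C: percent viability relative to DMSO vehicle wells taken as 100%.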

The term IC50 denotes the concentration that gives 50% inhibition. What is called viability, T/C is the ratio of treated to control. With `Cc1[nH]c2ccccc2c1CCNCc1ccc(/C=C/C(=O)NO)cc1` + CN(C)c1ccc(Nc2c3ccc(NC(=O)CCN4CCCC4)cc3nc3cc(NC(=O)CCN4CCCC4)ccc23)cc1, the IC50 by setting is: (curve of first compound, second compound 0.0316 µM) 40 nM; (curve of first compound, second compound 0.1 µM) 35.1 nM; (curve of first compound, second compound 0.316 µM) 19.7 nM; (curve of first compound, second compound 1 µM) under 0.999 nM; (curve of first compound, second compound 3.16 µM) under 0.999 nM; (curve of first compound, second compound 10 µM) under 0.999 nM. The viability, T/C by setting is: (second compound 0.0316 µM, first compound 0.000999 µM) 104%; (second compound 0.0316 µM, first compound 0.00316 µM) 121%; (second compound 0.0316 µM, first compound 0.00999 µM) 101%; (second compound 0.0316 µM, first compound 0.0316 µM) 61.3%; (second compound 0.0316 µM, first compound 0.0999 µM) 8.25%; (second compound 0.0316 µM, first compound 0.316 µM) 0.39%. Moreover, the viability, T/C is 119% (second compound 0.1 µM, first compound 0.000999 µM); 102% (second compound 0.1 µM, first compound 0.00316 µM); 95.4% (second compound 0.1 µM, first compound 0.00999 µM); 56.6% (second compound 0.1 µM, first compound 0.0316 µM); 7.42% (second compound 0.1 µM, first compound 0.0999 µM); 0.13% (second compound 0.1 µM, first compound 0.316 µM). Moreover, the viability, T/C was 79.9% (second compound 0.316 µM, first compound 0.000999 µM); 75.7% (second compound 0.316 µM, first compound 0.00316 µM); 74.9% (second compound 0.316 µM, first compound 0.00999 µM); 33.1% (second compound 0.316 µM, first compound 0.0316 µM); 5.76% (second compound 0.316 µM, first compound 0.0999 µM); 0.14% (second compound 0.316 µM, first compound 0.316 µM). Besides, the viability, T/C by setting is: (second compound 1 µM, first compound 0.000999 µM) 48.6%; (second compound 1 µM, first compound 0.00316 µM) 30.2%; (second compound 1 µM, first compound 0.00999 µM) 33.6%; (second compound 1 µM, first compound 0.0316 µM) 15.8%; (second compound 1 µM, first compound 0.0999 µM) 2.82%; (second compound 1 µM, first compound 0.316 µM) 0.27%. For the same compound, the viability, T/C was 6.7% (second compound 3.16 µM, first compound 0.000999 µM); 4.52% (second compound 3.16 µM, first compound 0.00316 µM); 7.77% (second compound 3.16 µM, first compound 0.00999 µM); 1.86% (second compound 3.16 µM, first compound 0.0316 µM); 0.59% (second compound 3.16 µM, first compound 0.0999 µM); 0.18% (second compound 3.16 µM, first compound 0.316 µM). For the same compound, the viability, T/C was 0.17% (second compound 10 µM, first compound 0.000999 µM); 0.22% (second compound 10 µM, first compound 0.00316 µM); 0.54% (second compound 10 µM, first compound 0.00999 µM); 2% (second compound 10 µM, first compound 0.0316 µM); 0.38% (second compound 10 µM, first compound 0.0999 µM); 0.28% (second compound 10 µM, first compound 0.316 µM).
Consider `Cc1[nH]c2ccc(F)cc2c1-c1nc2c3cccnc3c3ncccc3c2[nH]1`, for which the IC50 (compound alone, run of 02/20/2024) was over 10000 nM.
For `C#Cc1c(F)ccc2cc(O)cc(-c3ncc4c(N5CC6CCC(C5)N6)nc(OCC56CCCN5CC(F)C6)nc4c3F)c12` (stereo not given), the viability, T/C is 102% and 110% and 104% (compound 0.0316 µM); 121% and 94.4% and 94.7% (compound 0.1 µM); 106% and 97.1% and 94.4% (compound 0.316 µM); 117% and 102% and 95.2% (compound 1 µM); 124% and 92.5% and 79.8% (compound 3.16 µM); 87.1% and 32.5% and 43.6% (compound 10 µM). For the setting “curve of compound”, the IC50 was > 10000 nM and 7160 nM and 8220 nM.

These data come from PubChem BioAssay AID2060497 (Molecular Pharmacology Branch, DTP, NCI, 2025).
